The source of these data is ChEMBL document CHEMBL4033712, “Synthesis and biological evaluation of new C-12(α/β)-(N-) sulfamoyl-phenylamino-14-deoxy-andrographolide derivatives as potent anti-cancer agents” (Bioorg Med Chem Lett, 2017).

Structures are written as SMILES.

The nature of data set [1]: (§1) Growth inhibition of human NHDF after 72 hrs by CellTiter-Glo luminescent cell viability assay. The class given is cell-based. The following applies: NHDF cells.
In data set [2] the test system is NHDF. The data set is described as §1. The note with it: nhdf, 72 h. It counts as cell-based.
A short description of data set [3]: Growth inhibition of human NCI60 cells after 48 hrs by sulforhodamine B assay. The following applies: NCI60, 48 h. It counts as functional. A general note: The SRB assay estimates cell density from bound dye.

What is called GI50 is the concentration at which growth is held to half of that of the control. Higher therefore signals lower sensitivity of the cells. The LC50 is the concentration that kills 50% of the test population. Read a high LC50 as lower toxicity. In data set [1], `CN(C)C/C=C/C(=O)Nc1ccc(C(=O)Nc2ccc(Nc3ncc(Cl)c(-c4c[nH]c5ccccc45)n3)cc2)cc1` returned a GI50 at 72 h of 46.6 nM. In addition, the LC50 in data set [2] came to 250.743 nM.
As usually defined, the TGI is the concentration at which net growth stops. Read a low TGI as more potent growth arrest. In data set [3], `C=C1CC[C@@H]2[C@](C)(CO)[C@H](O)CC[C@@]2(C)[C@@H]1C/C=C1/C(=O)OC[C@H]1O` [ANDROGRAPHOLIDE] showed a GI50 of 16.2 µM and a TGI of 49.7 µM. Further, the CC50 in data set [3] (read-out: LC50 (the source's name)) stood at 80.9 µM.
